Experiments:
[1] = test system: GSC markers; assay: Expression of GSC markers in treated tumors (IHC, immunoblot); assay type: in vivo, human U-87MG in nude mice; conditions: treated tumors vs PBS/DMSO
Experimental: Sections were also hematoxylin-stained and visualized by microscopy. B. Tissue lysates obtained from controls and several TF-D-LP4-TTs were immunoblotted for Nestin, Sox2, NGFR, CD133, and Klf4. C. Quantitative analysis of immunoblots is shown (n=2-4). D. Immunoblot analysis of, Klf4, Sox2, Nestin and Musashi expression in U-87MG and G7 cell lines, using specific antibodies. E. Quantitative analysis of immunoblots. […] G. G7 (·) and U-87MG cells (○) (2×10^5) were incubated for 3 h with the DMSO (0.15%) or with the indicated concentration of Retro-Tf-D-LP4 peptide in serum-free growth medium at 37°C and then subjected to FITC-Annexin V/PI staining and flow cytometry analysis. H. Representative FACS analysis of DMSO- (left) and 5 μM of Retro-Tf-D-LP4- (right) treated G7 or U-87MG cells.
Formalin-fixed, paraffin-embedded sections of control and peptide-TTs were hematoxylin-eosin stained, probed with appropriate antibodies via IHC staining or immunoblotting of cells and tissue extracts.
PLGA encapsulation of the VDAC1-based minutes using an UltraMicroPump III (World Precision peptide Retro-Tf-D-LP4 Instruments, Sarasota, FL). After infusion, the needle was left in place for 1 minute before slow withdrawal. The burr
Retro-Tf-D-LP4-loaded PLGA complexes were hole was sealed using sterile bone wax, and the wound prepared by the solvent displacement method with some was closed with 5.0 nylon surgical suture. All surgical modifications, as previously reported [2 3]. Twenty procedures were performed under sterile conditions.
100% DMSO and then diluted 20-fold with sterile DDW into three groups (6 animals/group) and treated every to reach a concentration of 25 mg/ml in a final DMSO third day with DMSO (1.44%), Retro-Tf-D-LP4 (10 concentration of 5%. PLGA (50 mg) was dissolved in mg/kg) or Retro-Tf-D-LP4 (10 mg/kg) encapsulated by acetone (1 ml). Then, 105 µl of peptide were added to the PLGA. Mice were subjected to MRI (at days 20 and 29), PLGA-acetone solution. The resulting peptide-PLGA- sacrificed, and brains were excised and processed for acetone mixture was added drop-wise (0.5 ml/min) into IHC. Tumor volume was analyzed using VivoQuant 2.10 10 ml of aqueous solution containing 1% PVA (w/v). The software. These experimental protocols were approved by mixtures were stirred continuously at room temperature the Institutional Animal Care and Use Committee of Ben-until complete evaporation of the organic solvent. The Gurion University. nanoparticles were centrifuged at 15,000g (4 °C for 20 min) and the pellet was re-suspended in sterile DDW and Gel electrophoresis and immunoblotting washed two times. The resulting pellet was mixed with HBSS solution. Cells or tumor tissue were lysed using lysis buffer (50 mM Tris-HCl, pH 7.5, 150 mM NaCl, 1
Xenograft and intracranial-orthotopic mouse mM EDTA, 1.5 mM MgCl2, 10% glycerol, 1% Triton models X-100, supplemented with a protease inhibitor cocktail
(Calbiochem, UK). Cell lysates were then centrifuged at U-87MG glioblastoma cells (3 x106) were inoculated 600xg (10 min at 4°C) and samples (10-40 μg of protein) s.c. into the hind leg ﬂanks of athymic eight-week old were subjected to SDS-PAGE and immunoblotting male nude mice (Envigo). Thirteen days post-inoculation, using various primary antibodies (sources and dilutions tumor volume was measured and calculated (100-130 as detailed in supplementary Table 2), followed by mm3) and mice were randomized into three groups (5 the appropriate HRP-conjugated secondary antibodies mice/group). Each treatment substance was injected into (i.e., anti-mouse, anti-rabbit or anti-goat). Blots the established s,c. tumors using PBS containing 0.26% were developed using enhanced chemiluminescence DMSO or peptide in PBS, 0.26% DMSO/20 μM). The (Biological Industries). Band intensities were analyzed xenografts were injected 20 µl per tumor (2 points) every by densitometry using Multi Gauge software (Fujifilm) […]
two days. […]

[2] = test system: SH-SY5Y cells; assay: Apoptosis by acridine orange/ethidium bromide staining, SH-SY5Y; assay type: cell-based, human; conditions: 3 h, Suppl Fig 2B
Experimental: […] The cells were then trypsinized, centrifuged (1500xg, 5 min), washed with PBS and analyzed for cell death using propidium iodide (PI) staining and flow cytometer (Beckton-Dickinson, San Jose, CA) and BD CellQuest Pro software. Apoptotic cell death was also analyzed by PI and annexin V-FITC staining, and by acridine orange and ethidium bromide staining and light microscopy (Olympus LX2-KSP).
Supplementary Figure 2: Mode of action of VDAC1-based peptides. […]
detachment. SH-SY5Y cells (4×10^4/ml) were grown on cover slips, transfected with plasmid pEGFP-HK-I and after 24 h, were incubated […]
The final DMSO concentration in control and peptide-treated cells was 0.07%. Fixed cells were stained with DAPI and visualized by confocal microscopy (Olympus 1X81). Arrows indicate cells […]
showing diffusion of HK-I-GFP. B-C. […] B. SH-SY5Y cells were treated with the indicated […]
Arrows and arrowheads indicate cells with membrane blebbing (early apoptotic state) and late apoptotic states, respectively. C. Morphological analysis of apoptosis by electron microscopy (EM). For transmission EM, U-87MG cells (1.6 x10^6 /ml) were incubated with the indicated concentrations of D-ΔN-Ter-Antp peptide or DMSO (0.3% final concentration) for 6 h in serum-free medium. […]

SMILES: CC[C@H](C)[C@H](NC(=O)[C@H](C)NC(=O)[C@@H](N)Cc1c[nH]cn1)C(=O)N[C@@H](Cc1ccc(O)cc1)C(=O)N1CCC[C@H]1C(=O)N[C@@H](CCCNC(=N)N)C(=O)N[C@@H](Cc1c[nH]cn1)C(=O)N[C@@H](CO)C(=O)N[C@@H](Cc1c[nH]c2ccccc12)C(=O)N[C@H](C(=O)N[C@@H](Cc1c[nH]c2ccccc12)C(=O)N[C@@H](CCC(=O)O)C(=O)N[C@H](CCCCN)C(=O)N[C@H](CCCCN)C(=O)N[C@H](CC(C)C)C(=O)N[C@H](CCC(=O)O)C(=O)N[C@@H](C(=O)N[C@H](C)C(=O)N[C@@H](C(=O)N[C@H](CC(N)=O)C(=O)N[C@H](CC(C)C)C(=O)N[C@H](C)C(=O)N[C@H](Cc1c[nH]c2ccccc12)C(=O)N[C@@H](C(=O)N[C@H](C)C(=O)NCC(=O)N[C@H](CC(N)=O)C(=O)N[C@H](CO)C(=O)N[C@H](CC(N)=O)C(=O)N[C@@H](CCCCN)C(=O)N[C@@H](Cc1c[nH]c2ccccc12)C(=O)N[C@H](C(=O)N[C@@H](Cc1c[nH]c2ccccc12)C(=O)N[C@@H](CCCCN)C(=O)O)[C@@H](C)O)[C@H](C)O)C(C)C)[C@H](C)O)[C@@H](C)O [Tf-D-LP4]
- CD133 expression [1]: markedly lower
- Klf4 expression [1]: markedly lower
- NGFR expression [1]: markedly lower
- Nestin expression [1]: markedly lower
- S100B expression [1]: markedly lower
- Sox2 expression [1]: markedly lower
- apoptosis induction, SH-SY5Y [2]: induce apoptosis

Reference: article PMC5458211, “Mitochondrial VDAC1-based peptides: Attacking oncogenic properties in glioblastoma” (Oncotarget, 2017)
